Measurements from patent publication US20120309739A1, “AKT / PKB INHIBITORS” (ALMAC DISCOVERY LIMITED, priority 2009, published 2012).
Where a name gives a salt, the structure may show the parent alone.

Key:
Assay type in all cases: biochemical
AKT2 = target: T1, AKT2 (Homo sapiens, UniProt P31751); experiment: AKT Kinase Assay (IMAP fluorescent polarisation) vs AKT2; settings: activated AKT2, FAM Crosstide substrate
T1 construct: purchased SignalChem
In short: (§1)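 IMAP fluorescence-polarisation read-out (485/528 nm) of 5′FAM-Crosstide phosphorylation; IC50 fitted by non-linear regression from % inhibition against vehicle. Fourteen-point half-log compound dilutions sat 45 min at room temperature with activated isoform at linear-range amount. ATP and substrate followed for 1 h, then a 1 h binding-reagent stop.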

AKT3 = target: T2, AKT3 (Homo sapiens, UniProt Q9Y243); experiment: AKT Kinase Assay (IMAP fluorescent polarisation) vs AKT3; settings: activated AKT3, FAM Crosstide substrate
T2 construct: purchased SignalChem
In short: as §1

AKT1 = target: T3, AKT1 (Homo sapiens, UniProt P31749); experiment: AKT Kinase Assay (IMAP fluorescent polarisation) vs AKT1; settings: activated AKT1, FAM Crosstide substrate
T3 construct: purchased SignalChem
In short: as §1

T3 sequence (P31749 whole entry): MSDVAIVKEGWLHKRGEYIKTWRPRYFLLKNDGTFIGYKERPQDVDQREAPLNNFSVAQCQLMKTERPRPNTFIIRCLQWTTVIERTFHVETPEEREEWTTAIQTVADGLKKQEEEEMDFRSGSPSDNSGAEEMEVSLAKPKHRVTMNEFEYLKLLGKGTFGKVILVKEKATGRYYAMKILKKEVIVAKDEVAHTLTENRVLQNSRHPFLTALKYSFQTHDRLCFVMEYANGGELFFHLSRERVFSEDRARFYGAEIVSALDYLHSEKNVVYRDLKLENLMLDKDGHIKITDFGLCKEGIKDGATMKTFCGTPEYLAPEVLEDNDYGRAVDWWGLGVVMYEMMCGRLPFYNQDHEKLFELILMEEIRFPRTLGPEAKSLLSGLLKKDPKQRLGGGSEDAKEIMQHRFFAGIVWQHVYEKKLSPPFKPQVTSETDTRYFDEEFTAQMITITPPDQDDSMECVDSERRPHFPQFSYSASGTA
T2 sequence (Q9Y243 whole entry): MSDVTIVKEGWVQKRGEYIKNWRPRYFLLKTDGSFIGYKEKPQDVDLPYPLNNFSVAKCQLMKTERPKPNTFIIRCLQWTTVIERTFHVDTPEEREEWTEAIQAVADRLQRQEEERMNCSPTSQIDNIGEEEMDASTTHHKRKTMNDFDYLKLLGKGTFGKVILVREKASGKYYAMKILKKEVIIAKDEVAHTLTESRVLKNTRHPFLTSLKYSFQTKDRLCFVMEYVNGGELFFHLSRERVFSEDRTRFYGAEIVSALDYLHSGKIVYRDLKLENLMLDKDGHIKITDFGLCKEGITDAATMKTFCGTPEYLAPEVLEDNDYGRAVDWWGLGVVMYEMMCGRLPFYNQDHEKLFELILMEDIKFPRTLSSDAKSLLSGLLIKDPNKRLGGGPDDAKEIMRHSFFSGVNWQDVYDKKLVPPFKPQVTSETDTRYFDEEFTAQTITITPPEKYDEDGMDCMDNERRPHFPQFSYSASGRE
T1 sequence (P31751 whole entry): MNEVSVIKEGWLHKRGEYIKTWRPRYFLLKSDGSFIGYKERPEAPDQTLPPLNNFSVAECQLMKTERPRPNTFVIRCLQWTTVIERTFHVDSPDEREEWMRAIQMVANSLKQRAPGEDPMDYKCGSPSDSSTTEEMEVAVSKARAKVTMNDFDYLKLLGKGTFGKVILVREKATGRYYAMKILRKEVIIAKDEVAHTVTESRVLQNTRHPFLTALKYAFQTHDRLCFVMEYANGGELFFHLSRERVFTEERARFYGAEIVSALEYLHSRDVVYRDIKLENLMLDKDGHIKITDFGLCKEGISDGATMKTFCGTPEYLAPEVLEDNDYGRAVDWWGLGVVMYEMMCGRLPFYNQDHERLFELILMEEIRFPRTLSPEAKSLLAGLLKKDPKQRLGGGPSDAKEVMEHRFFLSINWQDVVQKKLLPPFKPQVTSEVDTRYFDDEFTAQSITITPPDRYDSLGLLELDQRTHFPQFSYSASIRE

Row | SMILES | IC50 (AKT2) | IC50 (AKT3) | IC50 (AKT1)
1 | C[C@H](O)CNc1nc2oc(-c3ccc(C4(N)CCC4)cc3)c(-c3ccccc3)c2c(=O)n1C [Example 86, (S)-6-(4-(1-Aminocyclobutyl)phenyl)-2-((2-hydroxypropyl)amino)-3-methyl-5-phenylfuro[2,3-d]pyrimidin-4(3H)-one] | 100 to 1000 nM | 1000 to 10000 nM | 100 to 1000 nM
2 | CCNc1nc2oc(-c3ccc(C4(N)CCC4)cc3)c(-c3ccccc3)c2c(=O)n1C [Example 88, 6-(4-(1-Aminocyclobutyl)phenyl)-2-(ethylamino)-3-methyl-5-phenylfuro[2,3-d]pyrimidin-4(3H)-one, HCl] | ≤ 100 nM | 1000 to 10000 nM | 100 to 1000 nM
3 | CNc1nc(OCCF)c2c(-c3ccccc3)c(-c3ccc(C4(N)CCC4)cc3)oc2n1 [Example 89, 6-(4-(1-Aminocyclobutyl)phenyl)-4-(2-fluoroethoxy)-N-methyl-5-phenylfuro[2,3-d]pyrimidin-2-amine, HCl] | 100 to 1000 nM | 1000 to 10000 nM | 100 to 1000 nM
4 | Cn1c(C2CC2)nc2oc(-c3ccc(C4(N)CCC4)cc3)c(-c3ccccc3)c2c1=O [Example 90, 6-(4-(1-Aminocyclobutyl)phenyl)-2-cyclopropyl-3-methyl-5-phenylfuro[2,3-d]pyrimidin-4(3H)-one] | 100 to 1000 nM | > 10000 nM | 100 to 1000 nM
5 | CCn1c(NCCO)nc2oc(-c3ccc(C4(N)CCC4)cc3)c(-c3ccccc3)c2c1=O [Example 93, 6-(4-(1-Aminocyclobutyl)phenyl)-3-ethyl-2-((2-hydroxyethyl)amino)-5-phenylfuro[2,3-d]pyrimidin-4(3H)-one] | ≤ 100 nM | 1000 to 10000 nM | 1000 to 10000 nM
6 | CNc1nc2oc(-c3ccc(C4(N)CCC4)cc3)c(-c3ccccc3)c2c(=O)n1CC1CC1 [Example 94] | ≤ 100 nM | 1000 to 10000 nM | 1000 to 10000 nM
7 | NC1(c2ccc(-c3oc4nc(NCCO)n(CC5CC5)c(=O)c4c3-c3ccccc3)cc2)CCC1 [Example 95, 6-(4-(1-Aminocyclobutyl)phenyl)-3-(cyclopropylmethyl)-2-((2-hydroxyethyl)amino)-5-phenylfuro[2,3-d]pyrimidin-4(3H)-one] | ≤ 100 nM | 1000 to 10000 nM | 1000 to 10000 nM
8 | CSc1nc2oc(-c3ccc(C4(N)CCC4)cc3)c(-c3ccccc3)c2c(=O)n1CC#N [Example 96, 2-(6-(4-(1-Aminocyclobutyl)phenyl)-2-(methylthio)-4-oxo-5-phenylfuro[2,3-d]pyrimidin-3(4H)-yl)acetonitrile] | ≤ 100 nM | 1000 to 10000 nM | ≤ 100 nM
9 | CSc1nc2oc(-c3ccc(C4(N)CCC4)cc3)c(-c3ccccc3)c2c(=O)n1CC(N)=O [Example 97, 2-(6-(4-(1-Aminocyclobutyl)phenyl)-2-(methylthio)-4-oxo-5-phenylfuro[2,3-d]pyrimidin-3(4H)-yl)acetamide] | 100 to 1000 nM | > 10000 nM | 100 to 1000 nM
10 | C[C@@H](CO)Nc1nc2oc(-c3ccc(C4(N)CCC4)cc3)c(-c3ccccc3)c2c(=O)n1C [Example 98, (S)-6-(4-(1-Aminocyclobutyl)phenyl)-2-(1-hydroxypropan-2-ylamino)-3-methyl-5-phenylfuro[2,3-d]pyrimidin-4(3H)-one] | 100 to 1000 nM | > 10000 nM | 100 to 1000 nM
11 | Cn1c(N2CCNC(=O)C2)nc2oc(-c3ccc(C4(N)CCC4)cc3)c(-c3ccccc3)c2c1=O [Example 99, 6-(4-(1-Aminocyclobutyl)phenyl)-3-methyl-2-(3-oxopiperazin-1-yl)-5-phenylfuro[2,3-d]pyrimidin-4(3H)-one] | ≤ 100 nM | 1000 to 10000 nM | 1000 to 10000 nM

Next, values leading:

Row | IC50 (AKT2) | IC50 (AKT3) | IC50 (AKT1) | SMILES
12 | ≤ 100 nM | 1000 to 10000 nM | 100 to 1000 nM | Cn1c(OCCO)nc2oc(-c3ccc(C4(N)CCC4)cc3)c(-c3ccccc3)c2c1=O [Example 85, 6-(4-(1-Aminocyclobutyl)phenyl)-2-(2-hydroxyethoxy)-3-methyl-5-phenylfuro[2,3-d]pyrimidin-4(3H)-one, HCl]
13 | 100 to 1000 nM | 1000 to 10000 nM | 100 to 1000 nM | Cc1nc2oc(-c3ccc(C4(N)CCC4)cc3)c(-c3ccccc3)c2c(=O)n1C [Example 87, 6-(4-(1-Aminocyclobutyl)phenyl)-2,3-dimethyl-5-phenylfuro[2,3-d]pyrimidin-4(3H)-one]
14 | 1000 to 10000 nM | > 10000 nM | 1000 to 10000 nM | NC1(c2ccc(-c3oc4ccn(CCF)c(=O)c4c3-c3ccccc3)cc2)CCC1 [Example 91, 2-(4-(1-Aminocyclobutyl)phenyl)-5-(2-fluoroethyl)-3-phenylfuro[3,2-c]pyridin-4(5H)-one]
15 | ≤ 100 nM | 1000 to 10000 nM | 100 to 1000 nM | CCn1c(NC)nc2oc(-c3ccc(C4(N)CCC4)cc3)c(-c3ccccc3)c2c1=O [Example 92, 6-(4-(1-Aminocyclobutyl)phenyl)-3-ethyl-2-(methylamino)-5-phenylfuro[2,3-d]pyrimidin-4(3H)-one]
16 | ≤ 100 nM | 1000 to 10000 nM | 1000 to 10000 nM | NC1(c2ccc(-c3oc4ncn(CC5CC5)c(=O)c4c3-c3ccccc3)cc2)CCC1 [Example 100]
17 | 100 to 1000 nM | 1000 to 10000 nM | 100 to 1000 nM | N#CCn1cnc2oc(-c3ccc(C4(N)CCC4)cc3)c(-c3ccccc3)c2c1=O [Example 101, 2-(6-(4-(1-Aminocyclobutyl)phenyl)-4-oxo-5-phenylfuro[2,3-d]pyrimidin-3(4H)-yl)acetonitrile]
18 | 100 to 1000 nM | 1000 to 10000 nM | 1000 to 10000 nM | NC1(c2ccc(-c3oc4ncn(CCO)c(=O)c4c3-c3ccccc3)cc2)CCC1 [Example 102, 6-(4-(1-Aminocyclobutyl)phenyl)-3-(2-hydroxyethyl)-5-phenylfuro[2,3-d]pyrimidin-4(3H)-one, HCl]
19 | ≤ 100 nM | 1000 to 10000 nM | 100 to 1000 nM | NC1(c2ccc(-c3oc4ncn(CCF)c(=O)c4c3-c3ccccc3)cc2)CCC1 [Example 103, 6-(4-(1-Aminocyclobutyl)phenyl)-3-(2-fluoroethyl)-5-phenylfuro[2,3-d]pyrimidin-4(3H)-one, HCl]
20 | ≤ 100 nM | 1000 to 10000 nM | 1000 to 10000 nM | CCn1cnc2oc(-c3ccc(C4(N)CCC4)cc3)c(-c3ccccc3)c2c1=O [Example 104, 6-(4-(1-Aminocyclobutyl)phenyl)-3-ethyl-5-phenylfuro[2,3-d]pyrimidin-4(3H)-one, HCl]
21 | 100 to 1000 nM | 1000 to 10000 nM | 1000 to 10000 nM | COCCn1cnc2oc(-c3ccc(C4(N)CCC4)cc3)c(-c3ccccc3)c2c1=O [Example 105, 6-(4-(1-Aminocyclobutyl)phenyl)-3-(2-methoxyethyl)-5-phenylfuro[2,3-d]pyrimidin-4(3H)-one, HCl]
22 | ≤ 100 nM | 1000 to 10000 nM | 1000 to 10000 nM | NC1(c2ccc(-c3oc4ncn(CC(F)(F)F)c(=O)c4c3-c3ccccc3)cc2)CCC1 [Example 106, 6-(4-(1-Aminocyclobutyl)phenyl)-5-phenyl-3-(2,12-trifluoroethyl)furo[2,3-d]pyrimidin-4(3H)-one, HCl]
23 | 100 to 1000 nM | 1000 to 10000 nM | 1000 to 10000 nM | CC(C)n1cnc2oc(-c3ccc(C4(N)CCC4)cc3)c(-c3ccccc3)c2c1=O [Example 107, 6-(4-(1-Aminocyclobutyl)phenyl)-3-isopropyl-5-phenylfuro[2,3-d]pyrimidin-4(3H)-one, HCl]
